Measurements published in the NIST ThermoML archive (doi:10.1021/acs.jced.7b00819).
± gives the expanded uncertainty stated by the source.

How the values were obtained:
[1] = Molar enthalpy of transition or fusion; conditions: Crystal; DSC
[2] = Crystal; DTA

Molar enthalpy of transition or fusion [1]	Normal melting temperature [2]	Compound
4.4 ± 0.239 kcal/mol	49.2 ± 0.7 °C	CCOC(=O)C1=NN(c2ccc(Cl)cc2Cl)C(C)(C(=O)OCC)C1 (centres undefined)
5.88 ± 0.263 kcal/mol	30.5 ± 0.7 °C	CCOC(=O)C1=NN(c2ccc(Cl)cc2Cl)[C@](C)(C(=O)OCC)C1
